The subject of data set [1] is ahsa1. As to the kind of experiment: Dose-response screen in primary mouse hepatocytes, ahsa1-specific probe (standard control). In kind it is cell-based. The following applies: 72 hours. The procedure: (§1) Dose-response screens for GalNAc-conjugated siRNAs (mTTR1-PDoV3-GalNAc3, mTTR1-PDoV2-GalNAc3, mTTR2-GalNAc3 positive control, mTTR2-GalNAc3 positive control) were performed using primary mouse hepatocytes for target TTR. The cell density was 40000 cells/96 well. The concentration was from: highest at 1 μM in 5-fold dilutions to lowest at […]. Cells were transfected by direct incubation for 72 hours. The data was read out by bDNA assay. The data was analyzed by XLfit software. TTR signal normalized to gapdh, mean of quadruplicates, mock-treated cells set=1, Xlfit for calculation of IC50 values. The primary hepatocytes used were purchased from Primacyt, Germany (lot MH181219), derived from CD 1 mice, and treated with siRNA right after thawing.
(§2) The two siRNAs were both conjugated to trivalent GalNAc clusters at the 3′ end (mTTR2 siRNA sequence was a fully modified sequence and 4 more additional PS linkages modification on the oligonucleotides than mTTR1. (Nair, et al., J. Am. Chem. Soc. 136:16958-16961(2014). Aha1-GaNAc3 positive control was used as a standard control, targeted to the housekeeper ahsa1. This was used as both negative and positive control, hybridizing the cell lysates either to the screening target or to an ahsa1-specific probe. Table e1 lists the sequences of the 2 control siRNAs and the structure of the GalNAc cluster. Table e1. Control siRNA sequence and targets. (Images discloses SEQ ID NOS 36, 47-48, 59, and 47-48, respectively, in order of appearance)

Data set [2] deals with TTR. As to the kind of experiment: Dose-response screen of GalNAc-conjugated siRNAs in primary mouse hepatocytes, bDNA read-out. Format: cell-based. The following applies: direct incubation 72 hours. The procedure: as §1, §2

{GalNAc3} = trivalent GalNAc cluster through an NHC6 amino-hexyl linker

As a reminder, the IC50 is the concentration at which inhibition is half-maximal. The IC80 is the concentration at which the effect reaches the 80% level.

Consider “aha1-GalNAc3 positive control: standard control siRNA targeted to the housekeeper ahsa1, conjugated to trivalent GalNAc cluster at 3′ end (SEQ ID NO: 41/42) (chain 1 UCUCGUGGCCUUAAUGAAA; chain 2 UUUCAUUAAGGCCACGAGAUU; chain 1: linkages s2 o16 (s phosphorothioate, o phosphodiester), 3' {GalNAc3}, sugars by position and methylation of C not given here; chain 2: linkages s2 o16 s2 (s phosphorothioate, o phosphodiester), sugars by position and methylation of C not given here; further chemistry not fully specified)”, for which, in data set [1], the IC50 was determined as 1.5 nM, it took 5.9 nM to reach the 80% level (IC80) and the “Max. KD” value came to 96%.

Turning to “mTTR2-GalNAc3 positive control: fully modified siRNA against mouse TTR conjugated to trivalent GalNAc cluster at the 3′ end (SEQ ID NO: 39/40; Nair et al.) (chain 1 AACAGUGUUCUUGCUCUAUAA; chain 2 UUAUAGAGCAAGAACACUGUUUU; chain 1: linkages s2 o18 (s phosphorothioate, o phosphodiester), 3' {GalNAc3}, sugars by position and methylation of C not given here; chain 2: linkages s2 o18 s2 (s phosphorothioate, o phosphodiester), sugars by position and methylation of C not given here; fully modified, Nf 2'-fluoro, further chemistry not fully specified)”, the concentration for an effect of 80% (IC80) in data set [2] (TTR signal normalized to gapdh) came out at 0.3 nM. Moreover, the IC50 in data set [2] (TTR signal normalized to gapdh, Xlfit) came out at 0.1 nM. In data set [2] (highest concentration 1 μM), the “Max. KD” value turned out to be 96%.

The values above are taken from patent US12054714B2, “Peptide docking vehicle for targeted nucleic acid delivery” (Sirnaomics, Inc., priority 2019, dated 2024).
